Laboratory results reported in patent US12202828B2, “Bicyclic heterocycle compounds and their uses in therapy” (ASTEX THERAPEUTICS LIMITED, priority 2013, dated 2025).
Several values for one entry are separate records, joined by “and”; a condition that tells them apart may be missing. Identical values can stand only once. Counter-ions that a name gives are not always drawn. Like-named read-outs stand apart in the source and are kept apart here.

How the values were obtained:
[1] = tested on: EVSA-T (human breast carcinoma); experiment: Anti-proliferative activity, Alamar Blue assay, EVSA-T; assay type: cell-based; conditions: 72 hours compound, read-out: EVSA-T prolif
Method: (§1) The method is based on the ability of viable cells to reduce resazurin to its fluorescent product resorufin. For each proliferation assay cells are plated onto 96 well plates and allowed to recover for 16 hours prior to the addition of inhibitor compounds (in 0.1% DMSO v/v) for a further 72 hours.
(§2) The anti-proliferative activities of compounds of the invention can be determined by measuring the ability of the compounds to inhibit growth in 3 cancer cell lines: • EVSA-T (human breast carcinoma) DSMZ cat. no.

hERG ion channel = molecular target: T1, hERG ion channel (Homo sapiens, UniProt Q12809); experiment: Population Patch Clamp (PPC) hERG assay in CHO K1 cells; assay type: cell-based
T1 construct: expressed in transfected cells; host or cells: CHO K1
T1 sequence (Q12809 whole entry): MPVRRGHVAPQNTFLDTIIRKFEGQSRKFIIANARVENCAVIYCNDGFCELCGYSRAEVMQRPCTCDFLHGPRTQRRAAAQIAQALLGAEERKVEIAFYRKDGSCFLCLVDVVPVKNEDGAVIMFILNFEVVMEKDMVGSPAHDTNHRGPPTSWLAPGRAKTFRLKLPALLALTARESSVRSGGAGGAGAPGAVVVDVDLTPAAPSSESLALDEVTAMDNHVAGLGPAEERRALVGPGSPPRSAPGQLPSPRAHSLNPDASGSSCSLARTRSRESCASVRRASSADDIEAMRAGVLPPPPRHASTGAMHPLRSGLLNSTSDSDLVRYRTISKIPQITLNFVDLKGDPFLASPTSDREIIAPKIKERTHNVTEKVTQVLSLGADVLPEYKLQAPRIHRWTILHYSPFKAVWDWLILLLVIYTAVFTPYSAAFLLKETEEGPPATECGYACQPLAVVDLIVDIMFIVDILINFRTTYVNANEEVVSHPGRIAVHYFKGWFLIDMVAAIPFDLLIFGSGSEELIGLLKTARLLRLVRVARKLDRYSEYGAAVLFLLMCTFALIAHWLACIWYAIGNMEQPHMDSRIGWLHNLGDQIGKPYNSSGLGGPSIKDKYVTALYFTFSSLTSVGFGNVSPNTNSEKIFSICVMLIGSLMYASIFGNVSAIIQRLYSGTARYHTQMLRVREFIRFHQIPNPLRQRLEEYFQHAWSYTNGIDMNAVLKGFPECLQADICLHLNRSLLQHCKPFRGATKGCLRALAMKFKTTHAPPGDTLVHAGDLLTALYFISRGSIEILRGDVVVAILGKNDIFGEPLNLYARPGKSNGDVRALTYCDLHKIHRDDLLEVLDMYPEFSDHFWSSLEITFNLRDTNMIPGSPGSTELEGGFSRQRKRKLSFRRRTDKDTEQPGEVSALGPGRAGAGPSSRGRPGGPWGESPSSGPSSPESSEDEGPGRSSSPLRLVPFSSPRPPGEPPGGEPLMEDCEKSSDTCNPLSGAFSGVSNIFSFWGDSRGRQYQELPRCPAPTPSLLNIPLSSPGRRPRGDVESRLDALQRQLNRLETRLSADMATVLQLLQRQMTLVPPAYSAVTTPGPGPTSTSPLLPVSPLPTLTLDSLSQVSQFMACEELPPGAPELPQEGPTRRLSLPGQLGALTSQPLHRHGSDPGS
Method: Inhibition of the hERG channel was measured by automated patch clamp assay in CHO K1 cells, stably transfected with the hERG ion channel. PPC measurements were performed using an IonWorks Quattro instrument (Molecular Devices Corporation, Union City, CA) using a 384 well PatchPlate (Molecular Devices Corporation) with 64 apertures per well. Each concentration of test compound was tested in duplicate wells. Amphotericin B was used to obtain electrical access to the cell interior at a final concentration of 200 μg/mL. Human ether-à-gogo related gene (hERG) currents were measured with a prepulse to +40 mV (2 s) from the holding potential of −80 mV, followed by a step to −50 mV (2 s) to elicit the deactivating tail currents, before returning to the holding potential for 1s. Compounds were incubated for 600s between the pre- and post-compound reads. The external recording solution used was 130 mM Na Gluconate, 20 mM NaCl, 4 mM KCl, 1 mM MgCl2, 1.8 mM CaCl2, 10 mM Hepes, 5 mM Glucose, pH to 7.3 with NaOH. All data were filtered for seal quality, seal drop, and current amplitude. The maximum current amplitude of the 3rd pulse tail current was calculated before (Pre) and after (Post) compound addition and the amount of block assessed by dividing the Post-compound current amplitude by the Pre-compound current amplitude.

[2] = molecular target: T2, XIAP-Caspase-9 in HEK293-XIAP-Caspase-9 cells (Homo sapiens, UniProt P98170); experiment: HEK293-XIAP-Caspase-9 immunoprecipitation (IP) MSD assay; assay type: cell-based; conditions: compound 2 h at 37° C.; read-out: HEK293-X-C9 IP
T2 construct: FLAG; expressed in transfected cells
T2 sequence (P98170 whole entry): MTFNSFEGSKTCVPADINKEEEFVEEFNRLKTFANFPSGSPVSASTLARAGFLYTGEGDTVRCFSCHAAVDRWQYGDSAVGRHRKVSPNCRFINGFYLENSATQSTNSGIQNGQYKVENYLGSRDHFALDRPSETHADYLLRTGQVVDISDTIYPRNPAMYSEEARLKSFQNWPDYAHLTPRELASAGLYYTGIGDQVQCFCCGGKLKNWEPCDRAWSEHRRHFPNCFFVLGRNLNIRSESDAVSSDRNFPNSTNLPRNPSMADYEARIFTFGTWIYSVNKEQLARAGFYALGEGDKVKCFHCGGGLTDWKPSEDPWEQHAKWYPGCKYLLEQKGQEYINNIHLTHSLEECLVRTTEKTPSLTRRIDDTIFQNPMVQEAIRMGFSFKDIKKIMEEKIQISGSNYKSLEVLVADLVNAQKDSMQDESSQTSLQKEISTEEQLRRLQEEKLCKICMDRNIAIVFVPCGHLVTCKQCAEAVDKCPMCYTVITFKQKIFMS
Method: Stable HEK293-XIAP-Caspase-9 cells were plated out into 96-well plates [200 μl/well at 1×10^6 cells/mL in cultured complete medium (DMEM+10% FBS+0.5 mg/mL Geneticin (Invitrogen)] and left overnight at 37° C. to recover. Compounds were added to duplicate wells in 0.1% DMSO for 2 h at 37° C. Cells were lysed in 50 μl 1×MSD lysis buffer (1% Triton X-100 in 20 mM Tris·Cl (pH 7.6), 150 mM NaCl including protease inhibitors) for 20 min rocking at room temperature. Streptavidin high bind MSD plate (L15SB-2) were coated with biotinylated anti-FLAG M2 antibody (Sigma F9291) at 25 μl/well with a 5 μg/mL dilution of antibody in PBS for 1 h, shaking; followed by blocking for 1 h with 150 μl 3% BSA/TBST. Cell lysate (25 μl) was added to the 96-well anti-FLAG coated MSD plate and placed on shaker for 4 h at room temperature. […] Plates were washed 4 times with 150 μl TBST, and 150 μl/well 1×MSD read buffer (R92TC-2) added before reading each plate.
EC50 values were determined from dose-response plots using nonlinear least-squares analysis.

[3] = tested on: MDA-MB-231 (human breast carcinoma); experiment: Anti-proliferative activity, Alamar Blue assay, MDA-MB-231; assay type: cell-based; conditions: proliferation, 72 hours compound
Method: as §1, §2

SK-MEL-5 = experiment: Apoptosis induction (cleaved caspase-3 cytometry), SK-MEL-5; assay type: cell-based, human; conditions: 1 μM Example 2 plus 1 ng/ml TNF-α, 24 hour
Method: (§3) Melanoma cell lines were plated out in duplicate wells of 24-well plates at 0.5×10^6 cells/ml the day before treatment to allow them to adhere. After incubation of the cells with compound(s) with or without 1 ng/ml TNF-α (R&D Systems) for 24 h in a CO2 incubator at 37° C., cells were harvested by trypsinisation. The cell pellet from the 24-well plate was resuspended in 100 μl FACS buffer (PBS+1% fetal bovine serum). NucView488 reagent (from Biotium) was added to a final concentration of 2 μM. The plate was incubated in the dark for 30 minutes before measuring fluorescent stained cells in a Guava easyCyte HT cytometer (Millipore). Cleaved caspase-3 staining was recorded in the FL1 channel, with unstained and DMSO control wells being used to set the gated stained and unstained cell populations.

WM-115 = experiment: Apoptosis induction (cleaved caspase-3 cytometry), WM-115; assay type: cell-based, human; conditions: 1 μM Example 2 plus 1 ng/ml TNF-α, 24 hour, dihydrochloride
Method: as §3

RPMI-7951 = experiment: Apoptosis induction (cleaved caspase-3 cytometry), RPMI-7951; assay type: cell-based, human; conditions: 1 μM Example 2 plus 1 ng/ml TNF-α, 24 hour
Method: as §3

A375 [4] = experiment: Combination protocol for apoptosis, A375; assay type: cell-based, human; conditions: for % Apoptosis Example 2 alone* / % Apoptosis Combination: 24 h
Method: as §3
No increase in apoptosis was seen over this time scale with the combination agent shown in the first column of the table alone (with or without TNF-α)—data not shown.

SK-MEL-28 [5] = experiment: Combination protocol for apoptosis, SK-MEL-28; assay type: cell-based, human
Method: as §3, with “After” for “Melanoma cell lines were plated out in duplicate wells of 24-well plates at 0.5×10^6 cells/ml the day before treatment to allow them to adhere. After”

WM-266-4 = experiment: Apoptosis induction (cleaved caspase-3 cytometry), WM-266-4; assay type: cell-based, human; conditions: 1 μM Example 2 plus 1 ng/ml TNF-α, 24 hour, dihydrochloride
Method: as §3

SK-MEL-2 = experiment: Apoptosis induction (cleaved caspase-3 cytometry), SK-MEL-2; assay type: cell-based, human; conditions: 1 μM Example 2 plus 1 ng/ml TNF-α, 24 hour
Method: as §3

A375 [6] = experiment: Apoptosis induction (cleaved caspase-3 cytometry), A375; assay type: cell-based, human; conditions: 1 μM Example 2 plus 1 ng/ml TNF-α, 24 hour
Method: as §3

MALME-3M = experiment: Apoptosis induction (cleaved caspase-3 cytometry), MALME-3M; assay type: cell-based, human; conditions: 1 μM Example 2 plus 1 ng/ml TNF-α, 24 hour
Method: as §3

SK-MEL-28 [7] = experiment: Apoptosis induction (cleaved caspase-3 cytometry), SK-MEL-28; assay type: cell-based, human; conditions: 1 μM Example 2 plus 1 ng/ml TNF-α, 24 hour
Method: as §3

## COC(CO)c1nc2c(cc1Cc1ccc(F)cc1)N(C(=O)CN1C[C@@H](C)NC[C@@H]1CN1[C@H](C)COC[C@H]1C)CC2(C)C (single isomer, unassigned) [Example 36, 2-[(2R,5R)-2-{[(3R,5R)-3,5-Dimethylmorpholin-4-yl]methyl}-5-methylpiperazin-1-yl]-1-{6-[(4-fluorophenyl)methyl]-5-((R or S)-2-hydroxy-1-methoxyethyl)-3,3-dimethyl-1H,2H,3H-pyrrolo[3,2-b]pyridin-1-yl}ethan-1-one]
[1]
  EC50: 0.48 nM
[1]; Homo sapiens, EVSA-T, 72 h
  EC50: 0.38 nM
hERG ion channel; CHO K1 cells stably transfected with hERG
  IC50: 420000 nM
[2]
  EC50: 2.6 nM and 4.2 nM
[3]; Homo sapiens, MDA-MB-231, 72 h
  EC50: 2.5 nM
[3]
  EC50: 2.7 nM

## C[C@@H]1CN(CC(=O)N2CC(C)(C)c3nc(CO)c(Cc4ccc(F)cc4)cc32)[C@@H](CN2CCOC[C@H]2C)CN1 [Example 2, 1-{6-[(4-Fluorophenyl)methyl]-5-(hydroxymethyl)-3,3-dimethyl-1H,2H,3H-pyrrolo[3,2-b]pyridin-1-yl}-2-[(2R,5R)-5-methyl-2-{[(3R)-3-methylmorpholin-4-yl]methyl}piperazin-1-yl] ethan-1-one dihydrochloride]
SK-MEL-5
  % Cleaved Caspase-3: 52.8%
WM-115
  % Cleaved Caspase-3: 16.7%
RPMI-7951
  % Cleaved Caspase-3: 44.0%
A375 [4]; Example 2 0.1 μM + 1 ng/ml TNF-α
  % Apoptosis Example 2 alone*: 14.4 (0.1 μM) %
A375 [4]; Example 2 1 μM + 1 ng/ml TNF-α
  % Apoptosis Example 2 alone*: 31.2 (1 μM) %
SK-MEL-28 [5]; Example 2 0.1 μM + 1 ng/ml TNF-α, 24 h
  % Apoptosis Example 2 alone*: 42.2 (0.1 μM) %
WM-266-4
  % Cleaved Caspase-3: 13.2%
SK-MEL-2
  % Cleaved Caspase-3: 49.5%
A375 [6]
  % Cleaved Caspase-3: 26.5%
MALME-3M
  % Cleaved Caspase-3: 29.5%
SK-MEL-28 [7]
  % Cleaved Caspase-3: 63.2%

## CCCCn1cc2c(cc1=O)C(C)(C)CN2C(=O)CN1C[C@@H](C)NC[C@@H]1CN1[C@H](C)COC[C@H]1C [Example 35, 6-Butyl-1-{2-[(2R,5R)-2-{[(3R,5R)-3,5-dimethylmorpholin-4-yl]methyl}-5-methylpiperazin-1-yl]acetyl}-3,3-dimethyl-1H,2H,3H,5H,6H-pyrrolo[2,3-c]pyridin-5-one dihydrochloride]
[1]; Homo sapiens, EVSA-T, 72 h
  EC50: 16 nM
hERG ion channel; @ 1000 μM
  hERG PPC (PI): 53% @ 1000
[2]
  EC50: 13 nM
[3]; Homo sapiens, MDA-MB-231, 72 h
  EC50: 130 nM

## CCCCc1cc2c([nH]c1=O)C(C)(C)CN2C(=O)CN1C[C@@H](C)NC[C@@H]1CN1C[C@H](C)OC[C@H]1C [Example 37, 6-Butyl-1-{2-[(2R,5R)-2-{[(2S,5R)-2,5-dimethylmorpholin-4-yl]methyl}-5-methylpiperazin-1-yl]acetyl}-3,3-dimethyl-1H,2H,3H,4H,5H-pyrrolo[3,2-b]pyridin-5-one dihydrochloride]
[1]; Homo sapiens, EVSA-T, 72 h
  EC50: 3.2 nM
hERG ion channel; @ 500 μM
  hERG PPC (PI): 63% @ 500
[2]
  EC50: 7.4 nM
[3]; Homo sapiens, MDA-MB-231, 72 h
  EC50: 18 nM

## CC(=O)Nc1cccc(-n2c(=O)n(C3CC3)c(=O)c3c(Nc4ccc(I)cc4F)n(C)c(=O)c(C)c32)c1 [Trametinib]
A375 [4]; agent 0.1 μM with Example 2 0.1 μM + 1 ng/ml TNF-α
  % Apoptosis Combination: 52.3%
A375 [4]; combination (agent 0.1 μM) relative to Example 2 0.1 μM + TNF-α alone
  Fold Increase: 3.6

## CCCS(=O)(=O)Nc1ccc(F)c(C(=O)c2c[nH]c3ncc(-c4ccc(Cl)cc4)cc23)c1F [Vemurafenib, reference compound]
A375 [4]; agent 4 μM with Example 2 1 μM + 1 ng/ml TNF-α
  % Apoptosis Combination: 61.3%
A375 [4]; combination (agent 4 μM) relative to Example 2 1 μM + TNF-α alone
  Fold Increase: 2.0
SK-MEL-28 [5]; agent 1 μM with Example 2 1 μM + 1 ng/ml TNF-α, 24 h
  % Apoptosis Combination: 87.3%
SK-MEL-28 [5]; combination (agent 1 μM) relative to Example 2 1 μM + TNF-α alone
  Fold Increase: 1.7
